The source of these data is patent US6187755A, “Benzylmaltosides as inhibitors of smooth muscle cell proliferation” (American Home Products Corporation, priority 1999, dated 2001).

Test [1] has as its system Porcine Smooth Muscle Cell. The test is described as follows: Porcine smooth muscle cell antiproliferation, 3H thymidine incorporation. It is filed as cell-based. To be noted: Sus scrofa, growth factor or serum stimulated, 24-36 h at 37° C., compound added with 3H thymidine and serum / growth factor. How it is done:
Effects of Compounds on Cell Proliferation Using ^3 H Thymidine Incorporation
Human and porcine smooth muscle cells were tested in early passage (generally passage 3-7) at sub-confluent conditions. Cultures were grown in 16 mm (24 well) multi-well culture dishes in medium 199 supplemented with 10% fetal bovine serum and 2% antibiotic / antimycotic. At sub-confluence, the cells were placed in a defined serum free medium (AIM-V; Gibco) for 24-48 h prior to initiating the experimental protocol.
Compounds were added to each well at 50 fold dilution (20 AL / well) and the plates were incubated for 24-36 h at 37° C. in 5% CO2. Compounds were initially dissolved in 50% ethanol and serially diluted into media. Compounds were routinely evaluated at concentrations from 1 to 100 μM. As a control, grade II porcine intestinal mucosal heparin (sodium salt) was routinely evaluated in all cell preparations at concentrations from 0.1 to 100 μg/mL.
At the completion of the test procedure, plates were placed on ice, washed three times with ice cold phosphate buffered saline (PBS) and incubated in ice cold 10% trichloroacetic acid (TCA) got 30 min to remove acid soluble proteins. Solution was transferred to scintillation vials containing 0.4 N HCl (500 μL/ vial to neutralize NaOH) and each well was rinsed two times with water (500 μL) for a total volume of 2 mL / vial.
Data was obtained, in triplicate, for both control and experimental samples. Control (100%) data was obtained from maximally stimulated cells, as the result of growth factor or serum stimulation. Experimental data was obtained from cells maximally stimulated with growth factor or serum and treated with compound. Data are expressed as an IC50 in Table I below.

The test system of another test is smooth muscle cell (SMC). As to conditions: literature; cited from earlier work.
For test [2] the following is noted: literature (Reilly 1993); cited from earlier work.
For the next test, the system named is endothelial cell. As to conditions: literature (Castellot 1987); cited from earlier work.

As to `CC(=O)Nc1cc(CO[C@@H]2O[C@H](CI)[C@@H](O[C@H]3O[C@@H]4COC(c5ccccc5)O[C@H]4[C@H](O)[C@H]3O)[C@H](O)[C@H]2O)ccc1Cl` (stereo partly drawn) [Example 5, N-{5-[(4',6',-O-Benzylidene-6-deoxy-6-iodo-β-D-maltosyl)-oxy-methyl]-2-chloro-phenyl}-acetamide], the half-maximal inhibitory concentration (IC50) in test [1] is 1160 nM.
The same measure, in the same setting: the figure for `CC(=O)Nc1cc(CO[C@@H]2O[C@H](Cn3cnc([N+](=O)[O-])c3)[C@@H](O[C@H]3O[C@@H]4COC(c5ccccc5)O[C@H]4[C@H](OC(C)=O)[C@H]3OC(C)=O)[C@H](OC(C)=O)[C@H]2OC(C)=O)ccc1Cl` (stereo partly drawn) [Example 2, N-(5-{[2,3,2',3'-Tetra-O-acetyl-4',6'-O-benzylidene-6-deoxy-6-(4-nitro-1 H-imidazol-1-yl)-β-D-maltosyl]-oxy-methyl}-2-chloro-phenyl)-acetamide] is 807 nM.
In the case of β-cyclodextrin tetradecasulfate, the “inhibition of SMC proliferation” value in the test with smooth muscle cell (SMC) was “smooth muscle cell proliferation inhibitor”. Moreover, the inhibition of restenosis result in test [2] was “effective inhibitor of restenosis”.
In test [1], `CC(=O)Nc1cc(CO[C@@H]2O[C@H](CN3C(=O)c4ccccc4C3=O)[C@@H](O[C@H]3O[C@@H]4COC(c5ccccc5)O[C@H]4[C@H](O)[C@H]3O)[C@H](O)[C@H]2O)ccc1Cl` (stereo partly drawn) [Example 7, N-(5-{[4',6'-O-Benzylidene-6-deoxy-6-(1,3-dioxo-1,3-dihydro-isoindol-2-yl)-β-D-maltosyl]-oxy-methyl}-2-chloro-phenyl)-acetamide] yielded an IC50 of 1590 nM.
Take heparin: the “inhibition of SMC proliferation” value with smooth muscle cell (SMC) is “endogenous inhibitors of SMC proliferation”. The endothelial cell growth result in the test on endothelial cell is “able to promote endothelial cell growth”.
On to `CC(=O)Nc1cc(CO[C@@H]2O[C@H](CN3C(=O)c4ccccc4C3=O)[C@@H](O[C@H]3O[C@@H]4COC(c5ccccc5)O[C@H]4[C@H](OC(C)=O)[C@H]3OC(C)=O)[C@H](OC(C)=O)[C@H]2OC(C)=O)ccc1Cl` (stereo partly drawn) [Example 6, N-(5-{[2,2',3,3'-Tetra-O-acetyl-4',6'-O-benzylidene-6-deoxy-6-(1,3-dioxo-1,3-dihydro-isoindol-2-yl)-β-D-maltosyl]-oxy-methyl}2-chloro-phenyl)-acetamide], for which, in test [1], the half-maximal inhibitory concentration (IC50) turned out to be 840 nM.
In turn, `CC(=O)Nc1cc(CO[C@@H]2O[C@H](Cn3cnc([N+](=O)[O-])c3)[C@@H](O[C@H]3O[C@@H]4COC(c5ccccc5)O[C@H]4[C@H](O)[C@H]3O)[C@H](O)[C@H]2O)ccc1Cl` (stereo partly drawn) [Example 3, N-(5-{[4',6'-O-Benzylidene-6-deoxy-6-(4-nitro-1H-imidazol-1-yl)-β-D-maltosyl]-oxy-methyl}-2-chloro-phenyl)-acetamide] came in with a half-inhibitory concentration (IC50) in test [1] of 1850 nM.
heparan sulfate: the “inhibition of SMC proliferation” value in the test on smooth muscle cell (SMC) was “endogenous inhibitors of SMC proliferation”. In the test on endothelial cell, the endothelial cell growth entry is “able to promote endothelial cell growth”.
Take `CC(=O)Nc1cc(CO[C@@H]2O[C@H](CI)[C@@H](O[C@H]3O[C@@H]4COC(c5ccccc5)O[C@H]4[C@H](OC(C)=O)[C@H]3OC(C)=O)[C@H](OC(C)=O)[C@H]2OC(C)=O)ccc1Cl` (stereo partly drawn) [Example 4, N-{5-[(2,2',3,3'-Tetra-O-acetyl-4',6',-O-benzylidene-6-deoxy-6-iodo-β-D-maltosyl)-oxy-methyl]-2-chloro-phenyl}-acetamide]: the IC50 in test [1] was 200 nM.
Regarding `CC(=O)Nc1cc(CO[C@@H]2O[C@H](Cn3cnc([N+](=O)[O-])c3)[C@@H](O[C@H]3O[C@@H]4COC(c5ccccc5)O[C@H]4[C@H](O)[C@H]3O)[C@H](O)[C@H]2O)ccc1C` (stereo partly drawn) [Example 1, N-(5-{[4',6'-O-Benzylidene-6-deoxy-6-(4-nitro-1H-imidazol-1-yl)-β-D-maltosyl-oxy]-methyl}-2-methyl-phenyl)-acetamide], the IC50 in test [1] worked out at 11000 nM.
The same measure, in the same setting: the same measure for `CC(=O)Nc1cc(CO[C@@H]2O[C@H](CN=[N+]=[N-])[C@@H](O[C@H]3O[C@@H]4COC(c5ccccc5)O[C@H]4[C@H](O)[C@H]3O)[C@H](O)[C@H]2O)ccc1Cl` (stereo partly drawn) [Example 8, N-{5-[(6-Deoxy-6-azido-4',6'-O-benzylidene-β-D-maltosyl)-oxy-methyl]-2-chloro-phenyl}-acetamide]: 614 nM.
